From patent US20260356817A1, “AMINOPYRIMIDINE AND AMINOTRIAZINE DERIVATIVES AS MYC PROTEIN MODULATORS” (Sanford Burnham Prebys Medical Discovery Institute, priority 2022, published 2026)
Where two headings read alike, the source gives them in different places.

System: Myc
Assay: Myc inhibition assay: Myc expression per cell by anti-Myc immunofluorescence, high-content imaging
Assay type: cell-based, human (patient-derived medulloblastoma xenograft cells)
Conditions: medulloblastoma PDX cells, 4 h
Procedure, shortened: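 Cells from Myc-driven medulloblastoma patient-derived orthotopic xenografts, propagated only in NSG mouse cerebellum, were dissociated and plated in serum-free medium. After overnight recovery, compounds were applied for 4 hours; cells were then fixed, stained for Myc and DAPI, and per-cell Myc quantified by high-content imaging to derive IC50.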

[1] = Table 1, read-out: IC50 (Myc inhibition)
[2] = Table 2, read-out: MYC Inhibition IC50

Compound	IC50 [1]	IC50 [2]
CC(C)(C)c1ccc(Nc2nccc(-c3ccc4[nH]cnc4c3)n2)cc1 [Compound 72, 4-(1H-benzo[d]imidazol-5-yl)-N-(4-(tert-butyl)phenyl)pyrimidin-2-amine]	1000 to 10000 nM	1000 to 10000 nM
NC(=O)c1ccc(Nc2nccc(-c3ccc4[nH]cnc4c3)n2)cc1 [Compound 73, 4-((4-(1H-benzo[d]imidazol-5-yl)pyrimidin-2-yl)amino)benzamide]	1000 to 10000 nM	1000 to 10000 nM
FC(F)(F)c1cccc(Nc2nccc(-c3ccc4scnc4c3)n2)c1 [Compound 76, 4-(benzo[d]thiazol-5-yl)-N-(3-(trifluoromethyl)phenyl)pyrimidin-2-amine]	1000 to 10000 nM	1000 to 10000 nM
FC(F)(F)Oc1ccccc1Nc1nccc(-c2ccc3[nH]cnc3c2)n1 [Compound 79, 4-(1H-benzo[d]imidazol-5-yl)-N-(2-(trifluoromethoxy)phenyl)pyrimidin-2-amine]	200 to 1000 nM	200 to 1000 nM
CC(C)(C)c1cccc(Nc2nccc(-c3ccc4[nH]cnc4c3)n2)c1 [Compound 87, 4-(1H-benzo[d]imidazol-5-yl)-N-(3-(tert-butyl)phenyl)pyrimidin-2-amine]	200 to 1000 nM	200 to 1000 nM
FC(F)(F)c1cc(Nc2nccc(-c3ccc4[nH]cnc4c3)n2)ccc1Cl [Compound 89, 4-(1H-benzo[d]imidazol-5-yl)-N-(4-chloro-3-(trifluoromethyl)phenyl)pyrimidin-2-amine]	1000 to 10000 nM	1000 to 10000 nM
NCCCOc1cccc(Nc2nccc(-c3ccc4[nH]cnc4c3)n2)c1 [Compound 91, N-(3-(3-aminopropoxy)phenyl)-4-(1H-benzo[d]imidazol-5-yl)pyrimidin-2-amine]	200 to 1000 nM	200 to 1000 nM
C#Cc1cccc(Nc2nccc(-c3ccc4[nH]cnc4c3)n2)c1 [Compound 93, 4-(1H-benzo[d]imidazol-5-yl)-N-(3-ethynylphenyl)pyrimidin-2-amine]	200 to 1000 nM	200 to 1000 nM
N#Cc1cccc(Nc2nccc(-c3ccc4[nH]cnc4c3)n2)c1 [Compound 94, 3-((4-(1H-benzo[d]imidazol-5-yl)pyrimidin-2-yl)amino)benzonitrile]	1000 to 10000 nM	1000 to 10000 nM
Cn1cnc2cc(-c3ccnc(Nc4cccc(C(F)(F)F)c4)n3)ccc21 [Compound 95, 4-(1-methyl-1H-benzo[d]imidazol-5-yl)-N-(3-(trifluoromethyl)phenyl)pyrimidin-2-amine]	< 200 nM	< 200 nM
Clc1ccc(Nc2nccc(-c3ccc4[nH]cnc4c3)n2)cc1Cl [Compound 98, 4-(1H-benzo[d]imidazol-5-yl)-N-(3,4-dichlorophenyl)pyrimidin-2-amine]	200 to 1000 nM	200 to 1000 nM
N#Cc1ccc(Nc2nccc(-c3ccc4[nH]cnc4c3)n2)cc1 [Compound 99, 4-((4-(1H-benzo[d]imidazol-5-yl)pyrimidin-2-yl)amino)benzonitrile]	200 to 1000 nM	200 to 1000 nM
FC(F)(F)Oc1cccc(Nc2nccc(-c3ccc4[nH]cnc4c3)n2)c1 [Compound 100, 4-(1H-benzo[d]imidazol-5-yl)-N-(3-(trifluoromethoxy)phenyl)pyrimidin-2-amine]	200 to 1000 nM	200 to 1000 nM

Continued, values first:

IC50 [1]	IC50 [2]	Compound
1000 to 10000 nM	1000 to 10000 nM	CN1CCN(c2nccc(-c3ccc4[nH]cnc4c3)n2)CC1 [Compound 74, 5-(2-(4-methylpiperazin-1-yl)pyrimidin-4-yl)-1H-benzo[d]imidazole]
1000 to 10000 nM	1000 to 10000 nM	c1csc(CNc2nccc(-c3ccc4[nH]cnc4c3)n2)c1 [Compound 75, 4-(1H-benzo[d]imidazol-5-yl)-N-(thiophen-2-ylmethyl)pyrimidin-2-amine]
200 to 1000 nM	200 to 1000 nM	Cn1cc(Nc2nccc(-c3ccc4[nH]cnc4c3)n2)cn1 [Compound 77, 4-(1H-benzo[d]imidazol-5-yl)-N-(1-methyl-1H-pyrazol-4-yl)pyrimidin-2-amine]
1000 to 10000 nM	1000 to 10000 nM	c1ccc(Nc2nccc(-c3ccc4[nH]cnc4c3)n2)cc1 [Compound 78, 4-(1H-benzo[d]imidazol-5-yl)-N-phenylpyrimidin-2-amine]
1000 to 10000 nM	1000 to 10000 nM	CCc1ccccc1Nc1nccc(-c2ccc3[nH]cnc3c2)n1 [Compound 80, 4-(1H-benzo[d]imidazol-5-yl)-N-(2-ethylphenyl)pyrimidin-2-amine]
200 to 1000 nM	200 to 1000 nM	Fc1ccc(Nc2nccc(-c3ccc4[nH]cnc4c3)n2)cc1 [Compound 81, 4-(1H-benzo[d]imidazol-5-yl)-N-(4-fluorophenyl)pyrimidin-2-amine]
1000 to 10000 nM	1000 to 10000 nM	Cn1nccc1CNc1nccc(-c2ccc3[nH]cnc3c2)n1 [Compound 82, 4-(1H-benzo[d]imidazol-5-yl)-N-((1-methyl-1H-pyrazol-5-yl)methyl)pyrimidin-2-amine]
1000 to 10000 nM	1000 to 10000 nM	Fc1cncc(Nc2nccc(-c3ccc4[nH]cnc4c3)n2)c1 [Compound 83, 4-(1H-benzo[d]imidazol-5-yl)-N-(5-fluoropyridin-3-yl)pyrimidin-2-amine]
1000 to 10000 nM	1000 to 10000 nM	c1csc(Nc2nccc(-c3ccc4[nH]cnc4c3)n2)c1 [Compound 84, 4-(1H-benzo[d]imidazol-5-yl)-N-(thiophen-2-yl)pyrimidin-2-amine]
1000 to 10000 nM	1000 to 10000 nM	c1coc(CNc2nccc(-c3ccc4[nH]cnc4c3)n2)c1 [Compound 85, 4-(1H-benzo[d]imidazol-5-yl)-N-(furan-2-ylmethyl)pyrimidin-2-amine]
200 to 1000 nM	200 to 1000 nM	Clc1ccc(Nc2nccc(-c3ccc4[nH]cnc4c3)n2)cc1 [Compound 86, 4-(1H-benzo[d]imidazol-5-yl)-N-(4-chlorophenyl)pyrimidin-2-amine]
1000 to 10000 nM	1000 to 10000 nM	c1cc(-c2ccc3[nH]cnc3c2)nc(NC2CCCC2)n1 [Compound 88, 4-(1H-benzo[d]imidazol-5-yl)-N-cyclopentylpyrimidin-2-amine]
< 200 nM	< 200 nM	Oc1cccc(Nc2nccc(-c3ccc4[nH]cnc4c3)n2)c1 [Compound 90, 3-((4-(1H-benzo[d]imidazol-5-yl)pyrimidin-2-yl)amino)phenol]
1000 to 10000 nM	1000 to 10000 nM	c1cc(Nc2nccc(-c3ccc4[nH]cnc4c3)n2)cc(N2CCNCC2)c1 [Compound 92, 4-(1H-benzo[d]imidazol-5-yl)-N-(3-(piperazin-1-yl)phenyl)pyrimidin-2-amine]
1000 to 10000 nM	1000 to 10000 nM	c1cc(-c2ccc3[nH]cnc3c2)nc(NC2CCCCC2)n1 [Compound 96, 4-(1H-benzo[d]imidazol-5-yl)-N-cyclohexylpyrimidin-2-amine]
1000 to 10000 nM	1000 to 10000 nM	c1cc(-c2ccc3[nH]cnc3c2)nc(Nc2ccc3c(c2)CCC3)n1 [Compound 97, 4-(1H-benzo[d]imidazol-5-yl)-N-(2,3-dihydro-1H-inden-5-yl)pyrimidin-2-amine]
1000 to 10000 nM	1000 to 10000 nM	c1cc(-c2ccc3[nH]cnc3c2)nc(NC2CCOCC2)n1 [Compound 101, 4-(1H-benzo[d]imidazol-5-yl)-N-(tetrahydro-2H-pyran-4-yl)pyrimidin-2-amine]
< 200 nM	< 200 nM	c1cc(Nc2nccc(-c3ccc4[nH]cnc4c3)n2)cc(N2CCOCC2)c1 [Compound 102, 4-(1H-benzo[d]imidazol-5-yl)-N-(3-morpholinophenyl)pyrimidin-2-amine]
